From US20240207261A1, “METHODS FOR TREATING SMALL CELL LUNG CANCER AND OTHER NEUR[…]” (BOARD OF REGENTS, THE UNIVERSITY OF TEXAS SYSTEM, priority 2021, published 2024)
“And” between values parts separate entries of the source, which are not always exact repeats. Equal entries are not always repeated. Where two headings read alike, the source gives them in different places.

Columns and labels:
metastatic SCLC = details: 37 of 102 patients; 95% CI 26.2-45.2; cited from earlier work
DMS79 and H209 cells = assay: Proliferation assay after siRNA knockdown of SLFN11; assay type: cell-based, human; details: DMS79 and H209, versus parental and scrambled siRNA controls
Protocol: For SLFN11 gene silencing, pooled small interfering RNAs (siRNAs) targeting SLFN11 (L-016764-01-0005) or its corresponding scramble control (D-001810-10-05; GE Dharmacon) were transfected into DMS79 and H209 cells for 72 hours using Lipofectamine 2000 (Invitrogen) according to the manufacturer's protocol. The cells were then plated for 96h proliferation assays. Knock down efficiency was validated by Western blotting.

DMS79 xenografts = assay: Flank xenograft efficacy study, SLFN11 high; assay type: in vivo, mouse; details: 0.1 mg/kg i.v. once per week
Protocol: (§1) For the […] mouse model, 6-week-old female athymic nude mice (Envigo) were used. Animals were maintained in accordance with the Institutional Animal Care and Use Committee (IACUC) of The University of Texas MD Anderson Cancer Center and the NIH Guidelines for the Care and Use of Laboratory Animals. Experiments were performed under protocol: 00001191-RN03.
(§2) High SLFN11 protein expressing SCLC cell line DMS79 and low SLFN11 protein expressing cell line H865 were used for generation of xenografts. For subcutaneous injections, 1×10^6 SCLC cells were injected into one flank of each mouse with PBS: Matrigel (1:1, BD Biosciences). At an average tumor volume of 100 mm^3, mice were randomly allocated to three groups (n=5). Mice received either Vehicle (0.9% saline), lurbinectedin (0.1 mg/kg i.v. once per week), or cisplatin (6 mg/kg i.p. once per week). Tumor volumes were measured every other day using digital calipers.
(§3) Differences in IC50 values between subgroups were tested using ANOVA. Differences between SLFN11 high and low groups, defined using the bi-modality index were tested using an un-paired t-test. Spearman rank correlation was used to assess the association between IC50 values and RPPA protein markers, The Benjamini & Hochberg (1995) method was used to control false discovery rate (FDR). […]

[1] = clinical testing; cited from earlier work
SLFN11 = assay: Western blot of SLFN11 expression after treatment; assay type: cell-based, human
Protocol: (§4) Protein lysate were isolated from SCLC cells treated with 0.9 nM lurbinectedin or DMSO for 24 and 48h. Nitrocellulose membranes were incubated with primary antibodies (1:1000) for Human SLFN11 (Santa Cruz Biotechnology), phospho-(S345) CHK1 Cell Signaling Technologies (CST), phospho-(S4/S8) RPA32 (Bethyl laboratories), phospho-(S139) TH2AX (CST), cleaved caspase-3 (CST), phospho-(S366) STING (SAB Biotech), cGAS (CST), PD-L1(CST), GAPDH (Santa Cruz Biotechnology) and Vinculin (Sigma-Aldrich) overnight. Secondary anti-goat, anti-mouse (Santa Cruz Biotechnology) and anti-rabbit HRP linked antibodies (CST) were used and detected using the Chemidoc imaging system, image captured with Image Studio Version 3.1 software (BioRad).

[2] = tested on: cGAS, phospho STING, PD-L1 in SCLC cells; assay: Western blot of cGAS-STING pathway and PD-L1; assay type: cell-based, human; details: 24 and 48h
Protocol: as §4

[3] = tested on: phospho CHK1(S345), phospho RPA32(S4/S8), phospho TH2AX in SCLC cells; assay: Western blot of replication stress and DNA damage markers (Example 2); assay type: cell-based, human; details: 0.9 nM, 24 and 48h, versus DMSO, all four subtypes
Protocol: as §4
Based on its mechanism of action, the inventors predicted that lurbinectedin would lead to increased replication stress and DNA damage in SCLC models. To test this, SCLC cells from all four subtypes were treated with lurbinectedin (0.9 nM/L) for 24 and 48h and markers of DNA damage and replication stress were assayed by Western blot.

human SCLC cell lines = assay: Cell proliferation assay (Cell Titer Glo), panel of 21 human SCLC cell lines; assay type: cell-based; details: for IC50: 21 human SCLC cell lines
Protocol: Human SCLC cell lines (21 cell lines) were purchased from ATCC. Cell lines were tested and authenticated by short tandem repeat profiling (DNA fingerprinting) and not cultured for greater than 6-months and were routinely tested for Mycoplasma contamination. Cell lines were cultured in either RPMI or HITES medium with 10% fetal bovine serum and 1% pen-strep, at 37° C. in a humidified chamber with 5% C02.
Cells were seeded in 96-well plates at 2,000 cells per well in triplicate for each cell line. After 24 hours, the cells in each well were treated with a lurbinectedin or with vehicle control. Four days later, proliferation was assayed by Cell Titer Glo (Promega, Fitchburg, WI). For single drug treatments, median inhibitory concentration (IC50) values were estimated by the Drexplorer software using date from duplicate experiments (14). For drug combinations, the area under the curve (AUC) of the observed (or experimental) effect of the combination was compared to the predicted additive effect. Data was subsequently presented as a ratio of the experimental effect relative to the predicted additive effect based on the Bliss Independence model, as previously reported (15). Using 10% above or below the predicted additive effect as a cut-off, the inventors then assigned the following groups: Observed/predicted<−0.1=greater than additive; […]; Observed/predicted <0.1 and >−0.1=additive.
Differences in IC50 values between subgroups were tested using ANOVA. Differences between SLFN11 high and low groups, defined using the bi-modality index (16), were tested using an un-paired t-test. Spearman rank correlation was used to assess the association between IC50 values and RPPA protein markers, The Benjamini & Hochberg (1995) method (17) was used to control false discovery rate (FDR). RPPA generates a quantitative measurement of expression of over 200 total and phosphorylated proteins, these values can be correlated to other variables such as IC50 values, and be compared between biomarker defined groups using standard statistical techniques. All analyses were performed using the R software.

SCLC cell lines = assay: 96 hr proliferation assay, SCLC cell line panel (Example 1); assay type: cell-based, human and mouse; details: for IC50: 12 human-derived and 3 mouse model-derived SCLC cell lines
Protocol: In this preclinical study, the inventors investigated the therapeutic efficacy of lurbinectedin in large number of profiled SCLC cell lines representing the four SCLC subtypes (A, N, P and I) to identify candidate markers of drug sensitivity and resistance.
(§5) A 12 SCLC cell line panel representing SCLC-A, N, P and I subtypes, developed at MD Anderson Cancer Center, was screened against lurbinectedin in 96 hr proliferation assays (FIG. 2). Western Blotting: Three SCLC cell lines were treated with 1 nM of lurbinectedin for 24 and 48h and then subjected for protein isolation and Western blotting for pChK1, pRPA32, TH2AX.

H865 xenografts = assay: Flank xenograft efficacy study, SLFN11 low; assay type: in vivo, mouse; details: H865, lower SLFN11; 0.1 mg/kg i.v. once per week
Protocol: as §1, §2, §3

[4] = tested on: pChK1, pRPA32, TH2AX in SCLC cell lines; assay: Western blot of DNA damage markers (Example 1); assay type: cell-based; details: 1 nM for 24 or 48 hours, sensitive cell lines
Protocol: as §5

## COc1ccc2[nH]c3c(c2c1)CCN[C@]31CS[C@@H]2c3c(OC(C)=O)c(C)c4c(c3[C@H](COC1=O)N1[C@@H]2[C@H]2c3c(cc(C)c(OC)c3O)C[C@@H]([C@@H]1O)N2C)OCO4 [lurbinectedin, Lurbinectedin]
Metastatic SCLC
  overall response by investigator assessment: 35.2%
DMS79 and H209 cells
  sensitivity after SLFN11 knockdown: reduced sensitivity
DMS79 xenografts
  tumor growth versus vehicle: significantly reduced tumor growth
[1]
  peak plasma concentration: 148.2-153.8 ng/mL and 188.8-196.0 nM
SLFN11; DMS-79
  change in SLFN11 levels: minimal decrease
SLFN11; H1048
  change in SLFN11 levels: undetectable level
[2]
  phospho STING and PD-L1: only observed in cell lines from the SCLC-P and SCLC-I subtypes
[2]; versus DMSO, all cell lines tested
  protein levels of cGAS: induced an increase
[3]
  markers of replication stress phospho CHK1(S345) and phospho RPA32(S4/S8): increases in markers of replication stress
Human SCLC cell lines; read-out: IC50 range
  IC50: 0.06 to 1.83 nM
Human SCLC cell lines; read-out: median IC50
  IC50: 0.46 nM
Human SCLC cell lines; SCLC-A, SCLC-N, SCLC-P, SCLC-I
  difference in in vitro activity between subtypes: no significant difference
Human SCLC cell lines; bimodal separation of SLFN11 by RPPA
  fold change (FC) of IC50 between SLFN11 high and low cell lines: 3.26 and 3.2
SCLC cell lines; read-out: IC50 range
  IC50: 0.08 to 1.84 nM
SCLC cell lines; read-out: median IC50
  IC50: 0.52 nM
SCLC cell lines; p=0.0035 by t-test
  IC50 of SLFN11-high versus SLFN11-low SCLC cells: lower IC50 than SLFN11-low cells
SCLC cell lines; subtypes A, N, P and I
  subtype specific difference in sensitivity: no subtype specific difference
H865 xenografts
  sensitivity of xenografts: significantly less sensitive
[4]
  markers of DNA damage (TH2AX, ChK1, RPA32): increased markers of DNA damage
